Data set [1] deals with Mythimna separate (Walker). The data set is described as follows: Insecticidal activity against Mythimna separate (Walker). Format: in vivo. The conditions noted are these: Mythimna, 100 μg/mL; read-out: insecticidal activity, Mythimna separate (Walker).
In the next data set the test system is Pellicularia sasakii. The data set is described as follows: Fungicidal activity, fungicide growth rate method, PS. The format is cell-based. The note with it: read-out: fungicidal activity (growth inhibition rate), PS.
A further data set deals with Rhizoctonia cerealis. The data set is described as follows: Fungicidal activity, fungicide growth rate method, RC. The format is cell-based. The conditions noted are these: Ceratobasidium cereale, read-out: fungicidal activity (growth inhibition rate), RC.
Another data set relates to Caenorhabditis elegans. Nature of the data set: Insecticidal activity against Caenorhabditis elegans. The format is in vivo. The note with it: Caenorhabditis elegans, 100 μg/mL; read-out: insecticidal activity, Caenorhabditis elegans.
The next data set concerns Cercospora arachidicola. The data set is described as follows: Fungicidal activity, fungicide growth rate method, CA. Format: cell-based. The conditions noted are these: Mycosphaerella arachidis, read-out: fungicidal activity (growth inhibition rate), CA.
In the next data set the test system is wheat Gibberella zeae. The data set is described as follows: microbe, parasite or virus in culture. The format is cell-based. The conditions noted are these: Fusarium graminearum, read-out: fungicidal activity (growth inhibition rate), GZ, 50 μg/mL.
For another data set, the system named is Physalospora piricola. The data set is described as follows: Fungicidal activity, fungicide growth rate method, PP. The note with it: read-out: fungicidal activity (growth inhibition rate), PP. The format is cell-based.
A further data set has as its system Ostrinia furnacalis. The data set is described as follows: Insecticidal activity against Ostrinia furnacalis. Format: in vivo. The conditions noted are these: Ostrinia furnacalis; 100 μg/mL; read-out: insecticidal activity, Ostrinia furnacalis.
Data set [2] deals with Phytophthora infestans (Mont.) de Bary. Nature of the data set: microbe, parasite or virus in culture. The format is cell-based. The note with it: Phytophthora infestans, read-out: fungicidal activity (growth inhibition rate), PI, 50 μg/mL.
Another data set deals with Alternaria solani. Nature of the data set: Fungicidal activity, fungicide growth rate method, AS. Format: cell-based. The conditions noted are these: Alternaria solani, read-out: fungicidal activity (growth inhibition rate), AS.
Data set [3] relates to Apis mellifera ligustica Spin. The conditions noted are these: for Death number after 24 h / Death number after 48 h: per replicate of 10 bees.
The next data set relates to Botrytis cinerea. The data set is described as follows: Fungicidal activity, fungicide growth rate method, BC. The format is cell-based. The conditions noted are these: Botrytis cinerea, read-out: fungicidal activity (growth inhibition rate), BC.
Data set [4] deals with Helicoverpa armigera (Hübner). The data set is described as follows: Insecticidal activity against Helicoverpa armigera (Hübner). Format: in vivo. The conditions noted are these: Helicoverpa armigera; 100 μg/mL; read-out: insecticidal activity, Helicoverpa armigera (Hübner).
For the next data set, the system named is Sclerotinia sclerotiorum. The data set is described as follows: Fungicidal activity, fungicide growth rate method, SS. The format is cell-based. The note with it: Sclerotinia sclerotiorum, 50 μg/mL.

The values below come from US11716992B2, “5A5B6C tricyclic spirolactone derivative, preparation method therefor and use thereof” (NANKAI UNIVERSITY, priority 2017, dated 2023).

Structures are written as SMILES. Several values for one entry are separate records, joined by “and”; a condition that tells them apart may be missing. Identical values can stand only once. Like-named read-outs stand apart in the source and are kept apart here.

Consider `C=CC[C@@H]1C[C@]2(O)CC(O)O[C@@]23CC=CC[C@H]13` (stereo partly shown) [Zyj07-29], for which the pest or weed control at 100 µg/mL is more than 30% in [1], more than 30% in the data set with Caenorhabditis elegans, 10% in the data set on Ostrinia furnacalis and 15% in [4]. The inhibition at 50 µg/mL in the data set with Pellicularia sasakii (50 μg/mL) stood at 0%; in the data set with Rhizoctonia cerealis (50 μg/mL), 0%; in the data set on Cercospora arachidicola (50 μg/mL), 5%; with wheat Gibberella zeae it was 7%; in the data set on Physalospora piricola (50 μg/mL), 45%; in data set [2], 25%. Besides, the inhibition at 50 µg/mL came out at 0% with Alternaria solani (50 μg/mL) and 27% in the data set on Botrytis cinerea (50 μg/mL). Moreover, the “Death rate after 48 h (%)” value in data set [3] (dosage 3.68 μg a.i./bee) was found to be 5.0%; in [3] (dosage 4.39 μg a.i./bee) it was 0%. Further, the “Death number after 24 h” value in [3] (dosage 3.68 μg a.i./bee) and in data set [3] (dosage 4.39 μg a.i./bee) was 0 throughout. Also, the “Death number after 48 h” value in data set [3] (dosage 3.68 μg a.i./bee) was 0 and 1; in data set [3] (dosage 4.39 μg a.i./bee) it was 0.
As for `C=CC[C@@H]1C[C@]2(O)CCO[C@@]23CC=CC[C@H]13` [Zyj07-30], the pest or weed control at 100 µg/mL came to 0% in data set [1], 7% in the data set with Caenorhabditis elegans, 0% in the data set with Ostrinia furnacalis and 0% in data set [4]. Besides, the inhibition at 50 µg/mL in the data set on Pellicularia sasakii (50 μg/mL) stood at 27%; with Rhizoctonia cerealis (50 μg/mL) it was 13%; in the data set on Cercospora arachidicola (50 μg/mL) it was 14%; in the data set on wheat Gibberella zeae, 3%; in the data set on Physalospora piricola (50 μg/mL), 0%; in data set [2], 15%. Moreover, the inhibition at 50 µg/mL with Alternaria solani (50 μg/mL) stood at 0%; in the data set on Botrytis cinerea (50 μg/mL) it was 39%. Moreover, the “Death rate after 48 h (%)” value in data set [3] (dosage 9.77 μg a.i./bee) is 15.0%; in [3] (dosage 19.8 μg a.i./bee), 5.0%. For the same compound, the “Death number after 24 h” value in data set [3] (dosage 9.77 μg a.i./bee) and in data set [3] (dosage 19.8 μg a.i./bee) was 0 in each case. Further, the “Death number after 48 h” value in [3] (dosage 9.77 μg a.i./bee) is 1 and 2; in [3] (dosage 19.8 μg a.i./bee) it was 1 and 0.
For `C=CC[C@@H]1C[C@@]2(O)C[C@@H](CC=C)[C@H]3CC=CC[C@@]32O1` [Zyj07-98], the pest or weed control at 100 µg/mL in data set [1] is 0%; with Caenorhabditis elegans, 25%; in data set [4] it was 0%. Also, the inhibition at 50 µg/mL is 27% in the data set on Pellicularia sasakii (50 μg/mL); more than 70% in the data set with Rhizoctonia cerealis (50 μg/mL); more than 50% in the data set on wheat Gibberella zeae; more than 50% with Sclerotinia sclerotiorum; 17% in [2]; more than 60% in the data set on Alternaria solani (50 μg/mL). Further, the inhibition at 50 µg/mL with Botrytis cinerea (50 μg/mL) is more than 50%. The “Death rate after 48 h (%)” value in data set [3] (dosage 8.47 μg a.i./bee) worked out at 0%. The “Death number after 24 h” value in [3] (dosage 8.47 μg a.i./bee) is reported as 0. Further, the “Death number after 48 h” value in data set [3] (dosage 8.47 μg a.i./bee) is recorded as 0.
As to `C[Si](C)(C)O[C@]12CC=CC[C@@H]1C=CC2=O` [Zyj06-82], the pest or weed control at 100 µg/mL turned out to be 25% in data set [1], 8% in the data set with Caenorhabditis elegans, 5% in the data set on Ostrinia furnacalis and 5% in data set [4]. Also, the inhibition at 50 µg/mL with Pellicularia sasakii was found to be 23%; in the data set with Rhizoctonia cerealis, 43%; in the data set with Cercospora arachidicola it was 24%; in the data set with wheat Gibberella zeae, 0%; in the data set on Physalospora piricola, 40%; in data set [2], 16%. For the same compound, the inhibition at 50 µg/mL in the data set on Alternaria solani was 14%; with Botrytis cinerea, more than 50%.
Turning to `C=CC[C@@H]1C[C@]2(O)CC(=O)O[C@@]23C[C@@H](Cl)[C@H](O)C[C@H]13` [Zyj07-14], the inhibition at 50 µg/mL in the data set on Pellicularia sasakii (50 μg/mL) came to 15%; in the data set on Rhizoctonia cerealis (50 μg/mL), 51%; with Cercospora arachidicola (50 μg/mL), 31%; in the data set with wheat Gibberella zeae, 43%; with Physalospora piricola (50 μg/mL), 31%; in [2] it was 2%. Besides, the inhibition at 50 µg/mL was 15% in the data set with Alternaria solani (50 μg/mL) and more than 50% in the data set on Botrytis cinerea (50 μg/mL). The pest or weed control at 100 µg/mL in the data set with Caenorhabditis elegans amounted to 20%.
Consider `C=CC[C@@H]1CC2=CC(=O)O[C@@]23CC=CC[C@H]13` [Zyj07-92], for which the figures for the pest or weed control at 100 µg/mL (in [1]; with Ostrinia furnacalis; in data set [4]) were 20%, 0% and 0%, respectively. Moreover, the inhibition at 50 µg/mL with Pellicularia sasakii (50 μg/mL) is 40%; in the data set on Rhizoctonia cerealis (50 μg/mL) it was more than 70%; with Sclerotinia sclerotiorum, 38%; in [2], 15%; in the data set with Alternaria solani (50 μg/mL), more than 60%; in the data set with Botrytis cinerea (50 μg/mL) it was 30%. Also, the “Death rate after 48 h (%)” value in [3] (dosage 7.44 μg a.i./bee) and in [3] (dosage 14.3 μg a.i./bee) was 5.0% throughout. For the same compound, the “Death number after 24 h” value in data set [3] (dosage 7.44 μg a.i./bee) and in [3] (dosage 14.3 μg a.i./bee) was 0 throughout. The “Death number after 48 h” value was 0 and 1 in data set [3] (dosage 7.44 μg a.i./bee); 0 and 1 in [3] (dosage 14.3 μg a.i./bee).
In the case of `CC(C)(C)OO[C@@H]1CC(=O)[C@@]2(O)CC=CC[C@H]12` [Zyj06-92-2], the pest or weed control at 100 µg/mL in data set [1] came out at 20%; with Caenorhabditis elegans it was 20%; in the data set with Ostrinia furnacalis it was 10%; in data set [4] it was 10%. Besides, the inhibition at 50 µg/mL was 41% with Pellicularia sasakii (50 μg/mL); more than 70% in the data set on Rhizoctonia cerealis (50 μg/mL); 38% in the data set on Sclerotinia sclerotiorum; 15% in data set [2]; more than 60% in the data set with Alternaria solani (50 μg/mL); 30% in the data set on Botrytis cinerea (50 μg/mL).
With `CCOC(=O)C1C(=O)O[C@]23CC=CC[C@@H]2[C@H](OOC(C)(C)C)C[C@]13O` (stereo partly shown) [Zyj06-127], the pest or weed control at 100 µg/mL in data set [1] stood at 0%; in the data set on Caenorhabditis elegans it was 7%; with Ostrinia furnacalis, 0%; in [4], 0%. For the same compound, the inhibition at 50 µg/mL in the data set with Pellicularia sasakii (50 μg/mL) is 4%; with Rhizoctonia cerealis (50 μg/mL) it was 40%; with Cercospora arachidicola (50 μg/mL), 23%; in the data set on wheat Gibberella zeae, 36%; in the data set with Physalospora piricola (50 μg/mL), 5%; in data set [2], 2%. In addition, the inhibition at 50 µg/mL was determined as 7% with Alternaria solani (50 μg/mL) and 45% with Botrytis cinerea (50 μg/mL). The “Death rate after 48 h (%)” value in data set [3] (dosage 5.40 μg a.i./bee) and in data set [3] (dosage 7.70 μg a.i./bee) was 0% throughout. In addition, the “Death number after 24 h” value in [3] (dosage 5.40 μg a.i./bee) and in [3] (dosage 7.70 μg a.i./bee) was 0 throughout. The “Death number after 48 h” value in data set [3] (dosage 5.40 μg a.i./bee) and in data set [3] (dosage 7.70 μg a.i./bee) was 0 in each case.
`CCOC(=O)C1C(=O)O[C@]23CC=CC[C@@H]2CC[C@]13O` (stereo partly shown) [Zyj07-95]: the pest or weed control at 100 µg/mL was more than 30% in data set [1], 10% in the data set with Ostrinia furnacalis and 10% in data set [4]. Moreover, the inhibition at 50 µg/mL in the data set with Pellicularia sasakii (50 μg/mL) was 57%; with Rhizoctonia cerealis (50 μg/mL), more than 70%; in the data set with wheat Gibberella zeae it was more than 50%; in the data set with Sclerotinia sclerotiorum it was more than 50%; in data set [2], 29%; in the data set on Alternaria solani (50 μg/mL) it was more than 60%. The “Death rate after 48 h (%)” value in data set [3] (dosage 9.36 μg a.i./bee) and in data set [3] (dosage 19.9 μg a.i./bee) was 0% throughout. The “Death number after 24 h” value in [3] (dosage 9.36 μg a.i./bee) and in [3] (dosage 19.9 μg a.i./bee) was 0 each time. For the same compound, the “Death number after 48 h” value in [3] (dosage 9.36 μg a.i./bee) and in [3] (dosage 19.9 μg a.i./bee) was 0 in each case.
`C=CC[C@@H]1CC(=O)[C@@]2(O)CC=CC[C@H]12` [Zyj06-177]: the pest or weed control at 100 µg/mL (in data set [1]; with Ostrinia furnacalis; in [4]) was 0% each time. Besides, the inhibition at 50 µg/mL in the data set with Pellicularia sasakii (50 μg/mL) came to 19%; with Rhizoctonia cerealis (50 μg/mL), 61%; in the data set with Cercospora arachidicola (50 μg/mL), 46%; in the data set with wheat Gibberella zeae, 0%; in the data set on Physalospora piricola (50 μg/mL), 11%; in data set [2] it was 11%. Moreover, the inhibition at 50 µg/mL was determined as 12% in the data set on Alternaria solani (50 μg/mL) and 48% in the data set on Botrytis cinerea (50 μg/mL). Besides, the “Death rate after 48 h (%)” value in data set [3] (dosage 8.17 μg a.i./bee) and in data set [3] (dosage 9.46 μg a.i./bee) was 0% throughout. Moreover, the “Death number after 24 h” value in data set [3] (dosage 8.17 μg a.i./bee) and in [3] (dosage 9.46 μg a.i./bee) was 0 in each case. The “Death number after 48 h” value in data set [3] (dosage 8.17 μg a.i./bee) and in data set [3] (dosage 9.46 μg a.i./bee) was 0 each time.
